Experimental data from patent US8513271B2, “Pyrimidine compounds as delta opioid receptor modulators” (Janssen Pharmaceutica, NV, priority 2009, dated 2013).
Read-outs that look alike come from different tables or passages of the source.

Biological target: T1, delta opioid receptor (Mus musculus, UniProt P32300)
T1 construct: NG108-15 cell membranes were purchased from Applied Cell Sciences (Rockville, Md.); host or cells: NG108-15 cell membranes
Assay: [35S]GTPγS binding assay in NG108-15 cell membranes (delta opioid functional assay), 200 nM screen
Assay type: biochemical
Details: NG108-15 cell membranes; for EC50 / GTPγS δ-RelEfficacy @200 nM: averages if tested more than once; for GTPγS δ-opioid receptor Rel Efficacy: relative efficacy from dose response; for GTPγS δ-RelEfficacy @200 nM: 200 nM test compound, relative to calculated max of SNC80 dose response curve

[1] = read-out: GTPγS δ-opioid receptor EC50
[2] = GTPγS δ-opioid receptor EC50 (μM)

T1 sequence (P32300 whole entry): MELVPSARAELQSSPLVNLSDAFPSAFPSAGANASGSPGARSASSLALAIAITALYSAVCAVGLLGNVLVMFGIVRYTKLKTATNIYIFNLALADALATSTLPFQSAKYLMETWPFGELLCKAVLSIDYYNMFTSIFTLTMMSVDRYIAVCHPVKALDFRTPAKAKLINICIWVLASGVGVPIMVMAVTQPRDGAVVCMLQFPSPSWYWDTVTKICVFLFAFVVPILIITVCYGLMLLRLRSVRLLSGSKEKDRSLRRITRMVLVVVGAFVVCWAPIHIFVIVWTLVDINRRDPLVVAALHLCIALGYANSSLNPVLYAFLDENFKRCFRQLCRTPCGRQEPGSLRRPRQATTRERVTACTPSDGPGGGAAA

Compound	EC50 [1] [µM]	GTPγS δ-opioid receptor Rel Efficacy	EC50 [2] [µM]	GTPγS δ-RelEfficacy @200 nM
COc1ccc(Oc2nc(-c3cncc(OC)c3)ncc2NC2CCCC(N)C2)cc1 (mixture of isomers) [Cpd 309]	0.035	1.162		
COc1ccc(Oc2nc(-c3cncc(SC)c3)ncc2NC2CCCC(N)C2)cc1 (racemic) [Cpd 310]		1.042	0.031	
COc1ccc(Oc2nc(-c3cccnc3)ncc2NC2CCCC(N)C2)cc1 (single isomer, unassigned) [Cpd 307]		1.191	0.011	0.880
COc1ccc(Oc2nc(-c3cccnc3)ncc2NC2CCCCC2N)cc1 (single isomer, unassigned) [Cpd 308]				0.140
COc1ccc(Oc2nc(-c3cncc(SC)c3)ncc2NC2CCCC(N)C2)cc1 (single isomer, unassigned) [Cpd 319]		0.871	0.112	
COc1ccc(Oc2nc(-c3cccnc3)ncc2NC2CCCC(N)C2)cc1 (single isomer, unassigned) [Cpd 323]		0.988	0.06	
CCN(CC)C(=O)c1cccc(Oc2nc(-c3cncc(F)c3)ncc2NC[C@@H]2CCCN2)c1 [Cpd 170]				0.176
O=C(c1cccc(Oc2nc(-c3cncc(F)c3)ncc2NC[C@@H]2CCCN2)c1)N1CCCC1 [Cpd 171]				0.257
O=C(c1cccc(Oc2nc(-c3cncc(F)c3)ncc2NC[C@@H]2CCCN2)c1)N1CCCCC1 [Cpd 172]				0.246
O=C(c1cccc(Oc2nc(-c3cncc(F)c3)ncc2NC[C@@H]2CCCN2)c1)N1CCOCC1 [Cpd 173]				0.249
CN1CCN(C(=O)c2cccc(Oc3nc(-c4cncc(F)c4)ncc3NC[C@@H]3CCCN3)c2)CC1 [Cpd 174]				0.205
CCN(CC)C(=O)c1ccc(Oc2nc(-c3cccnc3)ncc2NC[C@@H]2CCCN2)cc1 [Cpd 175]				0.005
O=C(c1ccc(Oc2nc(-c3cncc(F)c3)ncc2NC[C@@H]2CCCN2)cc1)N1CCCC1 [Cpd 176]				0.112
O=C(Nc1ccc(Oc2nc(-c3cccnc3)ncc2NC[C@@H]2CCCN2)cc1)OCc1ccccc1 [Cpd 177, (4-{2-Pyridin-3-yl-5-[(pyrrolidin-2-(S)-ylmethyl)-amino]-pyrimidin-4-yloxy}-phenyl)-carbamic acid benzyl ester]	0.255	1.389		0.511
Cc1ccc(Oc2nc(-c3cncc(F)c3)ncc2NC[C@@H]2CCCN2)cc1 [Cpd 178]	0.3	1.239		0.578
CCc1ccc(Oc2nc(-c3cncc(C#N)c3)ncc2NC[C@@H]2CCCN2)cc1 [Cpd 179]	0.119	1.182		0.601
CCc1ccc(Oc2nc(-c3cncc(Cl)c3)ncc2NC[C@@H]2CCCN2)cc1 [Cpd 180]				0.250
COc1ccc(Oc2nc(-c3cncnc3)ncc2N(C[C@@H]2CCCN2)C(C)=O)cc1 [Cpd 181, N-[4-(4-Methoxy-phenoxy)-[2,5′]bipyrimidinyl-5-yl]-N-pyrrolidin-2-(S)-ylmethyl-acetamide]				0.139
CCc1ccc(Oc2nc(-c3cncc(F)c3)ncc2NC[C@@H]2CCCN2)cc1 [Cpd 182]	0.377	1.065		0.470
Cc1ccc(Oc2nc(-c3cncc(C#N)c3)ncc2NC[C@@H]2CCCN2)cc1F [Cpd 183]		1.091	0.091	0.723
CCc1ccc(Oc2nc(-c3cccnc3)ncc2NC[C@@H]2CCCN2)cc1 [Cpd 184]	0.418	1.271		0.497
Cc1ccc(Oc2nc(-c3cncc(F)c3)ncc2NC[C@@H]2CCCN2)cc1F [Cpd 185]	0.101	1.014		0.447
Cc1ccc(Oc2nc(-c3cncc(Cl)c3)ncc2NC[C@@H]2CCCN2)cc1F [Cpd 186]	0.331	1.113		0.466
Cc1ccc(Oc2nc(-c3cccnc3)ncc2NC[C@@H]2CCCN2)cc1F [Cpd 187]	0.16	1.104		0.497
O=C(Nc1cccc(Oc2nc(-c3cccnc3)ncc2NC[C@@H]2CCCN2)c1)OCc1ccccc1 [Cpd 188]	0.219	1.950		0.779
Cc1ccc(Oc2nc(-c3cncc(C#N)c3)ncc2NC[C@@H]2CCCN2)c(F)c1F [Cpd 189]				0.375
Cc1ccc(Oc2nc(-c3cncc(Cl)c3)ncc2NC[C@@H]2CCCN2)c(F)c1F [Cpd 190]				0.222

Compound	EC50 [1] [µM]	GTPγS δ-opioid receptor Rel Efficacy	EC50 [2] [µM]	GTPγS δ-RelEfficacy @200 nM
Cc1ccc(Oc2nc(-c3cncc(F)c3)ncc2NC[C@@H]2CCCN2)c(F)c1F [Cpd 191]				0.410
Cc1ccc(Oc2nc(-c3cccnc3)ncc2NC[C@@H]2CCCN2)c(F)c1F [Cpd 192]				0.135
COc1ccc(Oc2nc(-c3cncc(F)c3)ncc2NC[C@@H]2C[C@@H](F)CN2)cc1 [Cpd 193]		1.090	0.032	0.801
COc1ccc(Oc2nc(-c3cncc(Cl)c3)ncc2NC[C@@H]2C[C@@H](F)CN2)cc1 [Cpd 194]		1.034	0.022	0.665
CCc1ccc(Oc2nc(-c3cncc(C#N)c3)ncc2NC[C@@H]2C[C@@H](F)CN2)cc1 [Cpd 195]	0.194	1.119		0.477
COc1ccc(Oc2nc(-c3cccnc3)ncc2NC[C@@H]2C[C@@H](F)CN2)cc1 [Cpd 196]		1.146	0.0693	0.800
O=C(Nc1ccc(Oc2nc(-c3cncc(F)c3)ncc2NC[C@@H]2CCCN2)cc1)OCc1ccccc1 [Cpd 197]	0.145	1.289		0.411
Nc1ccc(Oc2nc(-c3cncc(F)c3)ncc2NC[C@@H]2CCCN2)cc1 [Cpd 198, [4-(4-Amino-phenoxy)-2-(5-fluoro-pyridin-3-yl)-pyrimidin-5-yl]-pyrrolidin-2-(S)-ylmethyl-amine]	0.118	1.050		0.513
COc1ccc(Oc2nc(-c3cncc(C#N)c3)ncc2N[C@H]2CCCNC2)cc1 [Cpd 199]		1.140		0.615
Cc1cccc(Oc2nc(-c3cncc(C#N)c3)ncc2NC[C@@H]2CCCN2)c1 [Cpd 200]				0.289
Cc1cccc(Oc2nc(-c3cncc(Cl)c3)ncc2NC[C@@H]2CCCN2)c1 [Cpd 201]				0.148
Cc1cccc(Oc2nc(-c3cncc(F)c3)ncc2NC[C@@H]2CCCN2)c1 [Cpd 202]				0.122
Cc1cccc(Oc2nc(-c3cccnc3)ncc2NC[C@@H]2CCCN2)c1 [Cpd 203]				0.096
COc1ccc(Oc2nc(-c3cncc(C#N)c3)ncc2NC[C@@H]2CCCN2)cc1C [Cpd 204]		0.982	0.026	0.911
COc1ccc(Oc2nc(-c3cncc(F)c3)ncc2NC[C@@H]2CCCN2)cc1C [Cpd 205]		1.178	0.044	0.609
N#Cc1cncc(-c2ncc(NC[C@@H]3CCCN3)c(Oc3ccc(CF)cc3)n2)c1 [Cpd 206]				0.292
COc1ccc(Oc2nc(-c3cncc(C#N)c3)ncc2N[C@H]2CCCNC2)cc1 [Cpd 207]		1.047		0.963
COc1ccc(Oc2nc(-c3cncc(C#N)c3)ncc2NC2CCNCC2)cc1 [Cpd 208]				0.398
c1cncc(Cc2ccc(Oc3nc(-c4cccnc4)ncc3NC[C@@H]3CCCN3)cc2)c1 [Cpd 209, [2-Pyridin-3-yl-4-(4-pyridin-3-ylmethyl-phenoxy)-pyrimidin-5-yl]-pyrrolidin-2-(S)-ylmethyl-amine]				0.002
COc1ccc(Oc2nc(-c3cncc(Cl)c3)ncc2NC[C@@H]2CCCN2)cc1C [Cpd 210]		1.150	0.044	0.730
COc1ccc(Oc2nc(-c3cccnc3)ncc2NC[C@@H]2CCCN2)cc1C [Cpd 211]	0.106	1.050		0.814
CC(=O)Nc1ccc(Oc2nc(-c3cncc(F)c3)ncc2NC[C@@H]2CCCN2)cc1 [Cpd 212]		0.994	0.029	
CS(=O)(=O)Nc1ccc(Oc2nc(-c3cncc(F)c3)ncc2NC[C@@H]2CCCN2)cc1 [Cpd 213, N-(4-{2-(5-Fluoro-pyridin-3-yl)-5-[(pyrrolidin-2-(S)-ylmethyl)-amino]-pyrimidin-4-yloxy}-phenyl)-methanesulfonamide]				0.079
CS(=O)(=O)Nc1ccc(Oc2nc(-c3cccnc3)ncc2NC[C@@H]2CCCN2)cc1 [Cpd 214]				0.115
COc1ccc(Oc2nc(-c3cncc(C#N)c3)ncc2NCC2CNC2)cc1 [Cpd 215]	0.128	1.002		0.674
O=CNc1ccc(Oc2nc(-c3cccnc3)ncc2NC[C@@H]2CCCN2)cc1 [Cpd 216]	0.494	0.969		0.406
